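Growth conditions: 96-well plates. Treatment: test compound, 48 hours, 5 concentrations. Analysis: linear interpolation between bracketing concentrations; unreached endpoints set to highest concentration. At the GI50, growth is halved. TGI marks complete inhibition of growth.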
How the values were obtained:
Assay in all cases: NCI tumour cell line growth inhibition, 48 h
[1] = test system: HT29 colon
[2] = test system: COLO 205 colon
[3] = test system: NCI-H460 lung
[4] = test system: IGROV1 ovarian
[5] = test system: UACC-62 melanoma
[6] = test system: RPMI-8226 leukemia
[7] = test system: DU-145 prostate
[8] = test system: UO-31 renal
[9] = test system: SF-539 CNS
[10] = test system: HCC-2998 colon
[11] = test system: EKVX NSCLC
[12] = test system: OVCAR-8 ovarian
[13] = test system: CAKI-1 renal
[14] = test system: OVCAR-3 ovarian
[15] = test system: TK-10 renal
[16] = test system: HS 578T breast
[17] = test system: HL-60(TB) leukemia
[18] = test system: UACC-257 melanoma
[19] = test system: NCI-H226 lung
[20] = test system: T-47D breast
[21] = test system: SW-620 colon
[22] = test system: NCI/ADR-RES ovarian
[23] = test system: LOX IMVI melanoma
[24] = test system: SK-OV-3 ovarian
[25] = test system: OVCAR-5 ovarian
[26] = test system: BT-549 breast
[27] = test system: M14 melanoma
[28] = test system: MOLT-4 leukemia

With `COc1ccc(C2SCC(=O)N2NC(=O)C(O)c2ccccc2)cc1` (stereo unspecified) the GI50 [1] was > 100 µM, the TGI [1] was > 100 µM and the GI50 [2] was > 100 µM. For the same molecule, the TGI [2] was > 100 µM, the GI50 [3] was > 100 µM and the TGI [3] was > 100 µM. The GI50 [4] was > 100 µM, the TGI [4] was > 100 µM and the GI50 [5] was > 100 µM. For the same molecule, the TGI [5] was > 100 µM, the GI50 [6] was 61.3 µM and the TGI [6] was > 100 µM. For the same molecule, the GI50 [7] was > 100 µM, the TGI [7] was > 100 µM and the GI50 [8] was > 100 µM. For the same molecule, the TGI [8] was > 100 µM, the GI50 [9] was > 100 µM and the TGI [9] was > 100 µM. The GI50 [10] was > 100 µM, the TGI [10] was > 100 µM and the GI50 [11] was > 100 µM. The TGI [11] was > 100 µM, the GI50 [12] was > 100 µM and the TGI [12] was > 100 µM. The GI50 [13] was > 100 µM, the TGI [13] was > 100 µM and the GI50 [14] was > 100 µM. For the same molecule, the TGI [14] was > 100 µM, the GI50 [15] was > 100 µM and the TGI [15] was > 100 µM. For the same molecule, the GI50 [16] was > 100 µM, the TGI [16] was > 100 µM and the GI50 [17] was > 100 µM. For the same molecule, the TGI [17] was > 100 µM, the GI50 [18] was > 100 µM and the TGI [18] was > 100 µM. For the same molecule, the GI50 [19] was > 100 µM, the TGI [19] was > 100 µM and the GI50 [20] was > 100 µM. For the same molecule, the TGI [20] was > 100 µM, the GI50 [21] was > 100 µM and the TGI [21] was > 100 µM. The GI50 [22] was > 100 µM, the TGI [22] was > 100 µM and the GI50 [23] was > 100 µM. For the same molecule, the TGI [23] was > 100 µM, the GI50 [24] was > 100 µM and the TGI [24] was > 100 µM. For the same molecule, the GI50 [25] was > 100 µM, the TGI [25] was > 100 µM and the GI50 [26] was > 100 µM. For the same molecule, the TGI [26] was > 100 µM, the GI50 [27] was > 100 µM and the TGI [27] was > 100 µM. The GI50 [28] was > 100 µM and the TGI [28] was > 100 µM.

Reference: PubChem BioAssay (NCI)
